Data on 1 sequence can be found in ChEMBL document CHEMBL1129940, “Cytotoxicity of platinum (II) dinuclear complexes with 1-alkylthymine ligands against mouse sarcoma 180 cells” (J Med Chem, 1997).

In the assay the test system is CCRF S-180. Nature of the assay: In vitro inhibitory concentration against growth of mouse sarcoma 180 (S-180) cells. Format: functional, cell-based.

Regarding CISPLATIN, half-maximal inhibition (IC50) was put at 1.07 µM.
